Broadly, the solubility is the concentration that dissolves in the medium under given conditions.

We go through 1 compound from patent publication US12419857B2, “Oral topiramate suspension formulations with extended shelf stability and enhanced bioavailability” (Rosemont Pharmaceuticals Limited, priority 2018, dated 2025).

Series [1] can be described thus: Dissolution testing (paddles 58 RPM) at three pH levels vs TOPAMAX 200 mg Tablets. The series is classed as physicochemical. To be noted: once the suspension matrix has degraded. The protocol:
Two issues were observed during the dissolution testing of the oral topiramate suspension: (i) the suspension produces very poor inter-vessel reproducibility with very large error values up until near dissolution completion and (ii) when comparing the reference tablet formulation with the suspensions very poor comparison is seen as the tablets tend to complete dissolution at a much faster rate. It was determined that both of these issues are caused by the physiochemical characteristics of the topiramate suspension vehicle and the release of the active ingredient from the suspension matrix. Once the suspension matrix is broken down, the topiramate becomes readily bioavailable. […] Changes in the physical nature of the product can also be detected with this novel testing approach.
Process validation batches were manufactured using the final production equipment and facility to cGMP and compared to a reference product (TOPAMAX® 200 mg Tablets) using dissolution (paddles 58 RPM) at three pH levels (i.e., 1.2, 4.5 and 6.8). FIG. 7. […] Thus, data support the claim that the disclosed 10 mg/ml and 20 mg/ml oral liquid topiramate suspension products are bioequivalent to the reference product TOPAMAX® 200 mg tablets (Janssen Cilag, Ltd.).

The conditions of series [2]: acetone, chloroform, dimethylsulfoxide, ethanol; cited from earlier work.
Series [3] is described as follows: Solubility of topiramate in water and non-aqueous reagents. It is filed as physicochemical. To be noted: for solubility: water. An excerpt:
The present application discloses the first example of an aqueous suspension of topiramate with extended physicochemical stability and therapeutic bioavailability equivalent to that of commercially approved solid dose formulations. […] See, Physician's Desk Reference, 56th ed., pp. 2590-2595 (2002). Topiramate may be produced according to the processes disclosed in U.S. Pat. Nos. 4,513,006 and 5,387,700, the entire contents of which are herein incorporated by reference. Topiramate is sold in the United States under the trade name TOPAMAX® (Ortho-McNeil Pharmaceutical, Inc., Raritan, N.J., U.S.A). TOPAMAX® has been approved for use as an antiepileptic agent as an adjuvant therapy for patients with partial onset seizures, or primary generalized tonic-clonic seizures. See generally, Physician's Desk Reference, 56th ed., 2590-2595 (2002); see also, U.S. Pat. No. 4,513,006.
For drugs with low solubility and/or bioavailability at physiological pH and temperature, efforts to develop suspension formulations are often met with varying rates of success due to restrictive physiochemical parameters of the API and/or excipients. For example, while simply increasing the volume of diluent for low-solubility drugs may improve solubility, the large volume of diluent is often prohibitive from a patient perspective.
From a purely chemical perspective, topiramate is highly sensitive to heat (e.g., room temperature) and humidity (e.g., aqueous environment of liquid formulations). For example, abandoned U.S. Pat. App. No. 2006/0270611 discloses that topiramate is highly sensitive to hydrolysis in an aqueous medium and that any conventional aqueous oral solution would have a very limited shelf life. The chemical instability of topiramate is so well known, that pharmacists routinely monitor topiramate degradation by a change in physical appearance (e.g., tablet color changing from white to brown) and by an emergence of chemical breakdown byproducts (e.g., formation of sulfamate and sulphate ions and organic degradation compounds readily detected by HPLC). […]

In brackets after ≈: the same amount, converted by molar mass. Where two headings read alike, the source gives them in different places.

As for `CC1(C)O[C@@H]2[C@@H](CO[C@@]3(COS(N)(=O)=O)OC(C)(C)O[C@@H]23)O1` [topiramate, 2,3:4,5-Bis-O-(1-methylethylidene)- -D-fructopyranose sulfamate], in series [1], the BCS class entry is “BCS Class I or III”. Also, the “solubility in non-aqueous reagents” value in series [2] is “freely soluble”. The solubility is 8300 µg/mL (≈ 24.5 mM) in series [3] (purified water, 25 °C, 25 degrees Celsius, read-out: observed solubility in purified water) and 6400 µg/mL (≈ 18.9 mM) in series [3] (5 °C, 5 degrees Celsius, read-out: observed solubility in water). Besides, the “pH of maximum aqueous solubility” value in series [3] (strongly alkaline solutions) was ~9.5 pH.
